Laboratory results taken from patent publication US20110191897A1, “Plants Tolerant to HPPD Inhibitor Herbicides” (Bayer CropScience AG, priority 2009, published 2011).
Where two headings read alike, the source gives them in different places. Values belong to the compound of their own block, whether it stands above or below them.

Experiments:
[1] = target: T1, Blepharisma japonicum HPPD (SEQ ID No. 5) (Blepharisma japonicum, UniProt A8R3H6); experiment: biochemical; conditions: for inhibition at 5 µM: read-out: percentage of inhibition
T1 sequence (A8R3H6 entry or part of it): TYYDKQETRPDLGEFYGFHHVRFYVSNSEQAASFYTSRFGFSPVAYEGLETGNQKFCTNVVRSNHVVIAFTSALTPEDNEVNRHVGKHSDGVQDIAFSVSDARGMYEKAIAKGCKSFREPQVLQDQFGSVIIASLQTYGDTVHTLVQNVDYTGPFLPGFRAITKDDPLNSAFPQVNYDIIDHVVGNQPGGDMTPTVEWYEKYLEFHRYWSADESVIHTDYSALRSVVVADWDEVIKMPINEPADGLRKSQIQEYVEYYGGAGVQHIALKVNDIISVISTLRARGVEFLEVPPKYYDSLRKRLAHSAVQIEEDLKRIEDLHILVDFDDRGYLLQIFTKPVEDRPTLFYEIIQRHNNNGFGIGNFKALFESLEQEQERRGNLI

[2] = target: T2, Arabidopsis thaliana HPPD (SEQ ID No. 10) (Arabidopsis thaliana, UniProt P93836); experiment: Spectrophotometric HPPD activity assay in presence of HPPD inhibitors; assay type: biochemical; conditions: for inhibition at 5 µM: read-out: percentage of inhibition
T2 construct: made in house; host or cells: E. coli K-12 BL21 (pQE30-AtHPPD)
T2 sequence (P93836 with tags, fused parts or gaps): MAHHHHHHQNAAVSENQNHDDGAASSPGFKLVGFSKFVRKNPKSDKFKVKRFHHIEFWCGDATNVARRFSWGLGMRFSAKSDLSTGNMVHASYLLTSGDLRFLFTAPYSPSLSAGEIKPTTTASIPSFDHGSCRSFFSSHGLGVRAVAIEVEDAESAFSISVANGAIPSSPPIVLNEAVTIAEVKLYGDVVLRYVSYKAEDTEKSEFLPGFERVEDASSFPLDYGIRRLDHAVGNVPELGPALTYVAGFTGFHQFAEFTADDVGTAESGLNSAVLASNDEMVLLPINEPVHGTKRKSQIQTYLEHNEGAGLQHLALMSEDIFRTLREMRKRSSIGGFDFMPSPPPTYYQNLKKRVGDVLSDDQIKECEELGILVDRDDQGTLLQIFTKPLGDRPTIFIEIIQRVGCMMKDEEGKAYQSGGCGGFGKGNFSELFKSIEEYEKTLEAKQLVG

[3] = system: leaf disks of tobacco plants containing HPPD SEQ ID No. 11 (Arabidopsis thaliana); experiment: Leaf disk regeneration on media with HPPD inhibitors; assay type: cell-based, Nicotiana tabacum; conditions: 10^−6 M, 6 weeks
Protocol: (§1) At the end of the experiments the level of regeneration was evaluated as followed:
(§2) “−” means that the leaf disks looked the same as leaf disk from wild type tobacco plants on media supplemented with the inhibitor mentioned above. “++++” means that the leaf disks looked like the leaf disks from the wild type tobacco plants on media without inhibitor. “+”, “++”, and “+++” indicate regenerated leaf disks were heavily (+), medium (++) and less (+++) affected by the presence of the inhibitors.

[4] = system: wild type tobacco plants; experiment: Glasshouse response to bicyclopyrone, injury classes; assay type: in vivo, Nicotiana tabacum; conditions: WT, 100 g Al/ha, 7 DAT
Source text: (§3) Seeds of wild type tobacco plants and T1 tobacco plants carrying the gene from Blepharisma japonicum FMP37e coding for HPPD were sown on MS media (Murashige and Skoog […]) supplemented with […] kanamycin. After 4 weeks, rooted green plantlets were transferred to soil and grown for 3 weeks in the glasshouse as described above then sprayed with a mixture containing bicyclopyrone (100 g Al/ha), ammonium sulfate and methyl ester raps oil. The plants were classified in two categories based on the phenotype developed in response to the herbicide seven days after the treatment. […] In this case, only plants containing at least one T-DNA were exposed to the herbicidal treatment.

[5] = system: T1 tobacco plants carrying FMP37e (kanamycin selected); experiment: as above; assay type: in vivo, Nicotiana tabacum; conditions: 7 DAT
Source text: as §3

[6] = system: leaf disks of tobacco plants containing HPPD SEQ ID No. 7 (Blepharisma japonicum); experiment: Leaf disk regeneration on media with HPPD inhibitors; assay type: cell-based, Nicotiana tabacum; parameters: key to the marks not given beside the values; conditions: 10^−6 M, 6 weeks
Protocol: as §1, §2

[7] = target: T1, Blepharisma japonicum HPPD (SEQ ID No. 5); experiment: HPLC assay of HPPD in vitro kinetic properties; assay type: biochemical
Protocol: Km, Vmax, and kcat values for different HPPD enzyme preparations and Ki, K1=Kon, and K−1=Koff for different HPPD inhibitors were determined using a HPLC assay for measurements of HPPD activity. […] All assays were started by the addition of HPPD enzyme to the assay mixture and stopped at a series of times between 0 and 240 s by addition of 200 μl of the reaction mixture to reaction assay tubes containing 20 μl 10% perchloric acid. Precipitated protein was pelleted by a 5 minute centrifugation at 10,000 g. […] A standard set of concentrations of HGA were used to provide a standard curve in order to calibrate the 292 nm absorbance of the HGA peak versus HGA concentration.
For Km and Vmax value determinations the initial rates of the HPPD reaction at different substrate concentrations were determined from plots of HGA formed versus time and fitted to the Michaelis-Menten equation for unireactant enzymes using the ID Business Solutions Ltd. (www.idbs.com) XLfit software suite. For the determination of Ki, K1=Kon, and Ki=Koff values the time-courses of the HPPD reaction at different inhibitor concentrations were fitted to the equations for Mechanism A, competitive inhibition, for tight-binding inhibitors (Cha, S. (1975) Tight-binding inhibitors—I. Kinetic behaviour. Biochemical Pharmacology 24, 2177-2185) using the ID Business Solutions Ltd. XLfit software suite

[8] = system: tobacco plants with FMP37t-h, PAT and 2mEPSPS (pFCO112); experiment: Glasshouse trial of tobacco with three tolerance genes; assay type: in vivo, Nicotiana tobacum; conditions: 9 DAT
Protocol: A binary vector for tobacco transformation is, for example, constructed with the CaMV35 promoter driving the expression of the gene FMP37t-h (SEQ ID No. 15), with a codon usage optimized for the expression in dicotyledoneous plants and at its 5′ extremity was added a sequence coding for an OTP, and further upstream a sequence TEV (Tobacco etch virus) to improve the stability of the mRNA in plants followed by the CaMV35S terminator. The nucleotide sequence of the gene FMP37t-h is given in SEQ ID No. 15. Additionally, the transformation vector also contains a PAT gene cassette in which the gene is driven by a CaVM35S promoter and followed by a CaMV35S terminator for glufosinate based selection during the transformation process and a 2mEPSPS gene cassette in which the gene is driven by an histone promoter from Arabidopsis to confer tolerance to the herbicide glyphosate to the transformed plants (see FIG. 3 H). The binary vector was called pFCO112. The above vector was used to transform leaf disks obtained from Nicotiana tobacum plants, according to Example 3.
Transgenic tobacco plants were transferred to the greenhouse and treated with glyphosate at a rate of 1121 g Al/ha. Seeds were produced from such tolerant tobacco plants and harvested. These seeds were put on soil to germinate in the glasshouse. Three to four weeks later, 50 plantlets per event were transferred to single pots. Two weeks later, plants of a size 4-6 cm were sprayed either with:
[…] […] Non-transgenic tobacco plants were completely killed by treatment using one or more of the above herbicides.

[9] = target: T2, Arabidopsis thaliana HPPD (SEQ ID No. 10); experiment: HPLC assay of HPPD in vitro kinetic properties; assay type: biochemical; conditions: substrate HPP 10-400 μM, pH 7.8
Protocol: Km, Vmax, and kcat values for different HPPD enzyme preparations and Ki, K1=Kon, and K−1=Koff for different HPPD inhibitors were determined using a HPLC assay for measurements of HPPD activity. […] All assays were started by the addition of HPPD enzyme to the assay mixture and stopped at a series of times between 0 and 240 s by addition of 200 μl of the reaction mixture to reaction assay tubes containing 20 μl 10% perchloric acid. Precipitated protein was pelleted by a 5 minute centrifugation at 10,000 g.
For Km and Vmax value determinations the initial rates of the HPPD reaction at different substrate concentrations were determined from plots of HGA formed versus time and fitted to the Michaelis-Menten equation for unireactant enzymes using the ID Business Solutions Ltd. (www.idbs.com) XLfit software suite.

[10] = 5.0 × 10^−6M inhibitor (Table 4)
[11] = substrate HPP 10-400 μM, pH 7.8

SMILES: Cc1ccc(C(=O)COc2c(C(=O)c3ccc(Cl)c(C)c3Cl)c(C)nn2C)cc1 [Benzofenap]
- IC50 ([1]; read-out: pI50 (converted)): 3.16 µM
- inhibition at 5 µM [1]: 85%
- IC50 ([2]; read-out: pI50 (converted)): < 2.51 µM
- inhibition at 5 µM [2]: 90%

SMILES: COCCOCc1nc(C(F)(F)F)ccc1C(=O)C1=C(O)C2CCC(C2)C1=O (stereo not drawn) [Bicyclopyrone, 4-hydroxy-3-[[2-[(2-methoxyethoxy)methyl]-6-(trifluoromethyl)-3-pyridinyl]carbonyl]bicyclo[3.2.1]oct-3-en-2-one]
- level of regeneration of leaf disks [3]: −
- IC50 ([1]; read-out: pI50 (converted)): 200 µM
- inhibition at 5 µM [1]: 0%
- number of plants in Class I (injury: 0-30%) [4]: 0
- number of plants in Class II (injury: 31-100%) [4]: 12
- % of tolerant plant ([5]; line 113, 100 g Al/ha): 56%
- number of plants in Class I (injury: 0-30%) ([5]; line 113, 100 g Al/ha): 60
- number of plants in Class II (injury: 31-100%) ([5]; line 113, 100 g Al/ha): 78
- % of tolerant plant ([5]; line 207, 100 g Al/ha): >60%
- number of plants in Class I (injury: 0-30%) ([5]; line 207, 100 g Al/ha): 65
- number of plants in Class II (injury: 31-100%) ([5]; line 207, 100 g Al/ha): >100
- % of tolerant plant ([5]; line 208, 100 g Al/ha): 67%
- number of plants in Class I (injury: 0-30%) ([5]; line 208, 100 g Al/ha): 44
- number of plants in Class II (injury: 31-100%) ([5]; line 208, 100 g Al/ha): 90
- IC50 [2]: 6.31 µM
- inhibition at 5 µM [2]: 29%
- level of regeneration of leaf disks [6]: ++++

SMILES: CS(=O)(=O)c1cc(C(F)(F)F)ccc1C(=O)C(C#N)C(=O)C1CC1 (stereo not drawn) [Diketonitrile, 2-cyano-3-cyclopropyl-1-(2-methylsulphonyl-4-trifluoromethylphenyl)-propane-1,3-dione]
- Ki [7]: 6.6 µM
- inhibition at 5 µM [2, 10]: 87%

SMILES: CP(=O)(O)CCC(N)C(=O)O (stereo not drawn) [Glufosinate-ammonium]
- number of plants in Class I (no injuries) ([8]; line 634, 1000 g AI/ha): 10
- number of plants in Class II (injury: 10-40%) ([8]; line 634, 1000 g AI/ha): 0
- number of plants in Class III (injury: 41-100%) ([8]; line 634, 1000 g AI/ha): 0
- number of plants in Class I (no injuries) ([8]; line 713, 1000 g AI/ha): 10
- number of plants in Class II (injury: 10-40%) ([8]; line 713, 1000 g AI/ha): 0
- number of plants in Class III (injury: 41-100%) ([8]; line 713, 1000 g AI/ha): 0

SMILES: O=C(O)CNCP(=O)(O)O [Glyphosate]
- number of plants in Class I (no injuries) ([8]; line 634, 1121 g AI/ha): 10
- number of plants in Class II (injury: 10-40%) ([8]; line 634, 1121 g AI/ha): 0
- number of plants in Class III (injury: 41-100%) ([8]; line 634, 1121 g AI/ha): 0
- number of plants in Class I (no injuries) ([8]; line 713, 1121 g AI/ha): 10
- number of plants in Class II (injury: 10-40%) ([8]; line 713, 1121 g AI/ha): 0
- number of plants in Class III (injury: 41-100%) ([8]; line 713, 1121 g AI/ha): 0

SMILES: O=C(O)C(=O)Cc1ccc(O)cc1 [HPP, para-hydroxyphenylpyruvate]
- Km [7, 11]: 83 µM
- Vmax [7, 11]: 0.1 µM
- Km [9]: 6.3 µM
- Vmax [9]: 1.2 µM

SMILES: CS(=O)(=O)c1ccc(C(=O)C2C(=O)CCCC2=O)c([N+](=O)[O-])c1 [Mesotrione, 2-[4-(methylsulfonyl)-2-nitrobenzoyl]-1,3-cyclohexanedione]
- level of regeneration of leaf disks [3]: −
- IC50 [2]: < 2.51 µM
- inhibition at 5 µM [2, 10]: 86%
- level of regeneration of leaf disks [6]: ++++

SMILES: Cc1nn(C)c(O)c1C(=O)c1ccc(C(F)(F)F)cc1S(C)(=O)=O [Pyrasulfotole]
- pI50 ([1]; 2 mM HPP, 3 minutes incubation): 4.4
- percentage of inhibition [1, 10]: 0%
- pI50 ([2]; 2 mM HPP, 3 minutes incubation): 5.4
- percentage of inhibition [2, 10]: 69%

SMILES: Cc1ccc(S(=O)(=O)Oc2c(C(=O)c3ccc(Cl)cc3Cl)c(C)nn2C)cc1 [Pyrazolate]
- IC50 [1]: 20 µM
- inhibition at 5 µM [1]: 0%
- inhibition at 5 µM [2, 10]: 61%
- IC50 ([2]; read-out: pI50 (converted)): 3.98 µM

SMILES: CS(=O)(=O)c1ccc(C(=O)C2C(=O)CCCC2=O)c(Cl)c1 [Sulcotrione, 2-[2-chloro-4-(methylsulfonyl)benzoyl]-1,3-cyclohexanedione]
- IC50 [2]: < 2.51 µM
- inhibition at 5 µM [2]: 74%

- inhibition at 5 µM [2, 10]: 100%
SMILES: CS(=O)(=O)c1ccc(C(=O)C2C(=O)CCCC2=O)c(Cl)c1COCC1CCCO1 (stereo not drawn) [Tefuryltrione, 2-[2-chloro-4-(methylsulfonyl)-3-[[(tetrahydro-2-furanyl)methoxy]methyl]benzoyl]-1,3-cyclohexanedione]
